Test results as given in publication PMC8253220, “Molecular design, synthesis and in vitro biological evaluation of thienopyrimidine–hydroxamic acids as chimeric kinase HDAC inhibitors: a challenging approach to combat cancer” (Journal of Enzyme Inhibition and Medicinal Chemistry, 2021).

What was measured:
Type in all cases: biochemical
Hela nuclear extracts = test: Hela nuclear extract HDAC inhibitor assay (BPS Bioscience); conditions: 10 µM
Procedure: The purpose of the study is to determine the effects of twenty compounds from Misr International University on the enzymatic activities of hela nuclear extracts using an in vitro […]
7a Solution 10mM DMSO 10 10 % DMSO in
7b Solution 10mM DMSO 10 10 % DMSO in
7d Solution 10mM DMSO 10 10 % DMSO in
2.3 Experimental Conditions
2.3.1 Enzymes and Substrates
Assay Catalog # Substrate
Hela Nuclear Exctract 50053 10 µM HDAC Substrate 3
For the hela nuclear extracts, hela cells were grown to 90 % confluency. Hela nuclear extracts were prepared from the Nuclear Extraction Kit from abcam (Catalog # ab113474). The final total protein concentration was calculated to be 2.4 µg/µl. From this, the hela nuclear extracts was diluted 20-fold in HDAC assay buffer and 5 µl of the dilution was added to a 50 µl reaction.
The compounds are dissolved in DMSO. A series of dilutions of the compounds were prepared with 10% DMSO in HDAC assay buffer and 5 µl of the dilution was added to a 50 µl reaction so that the final concentration of DMSO is 1 % in all of […]
The enzymatic reactions for the hela nuclear extract were conducted in duplicate at 37 °C for 60 minutes in a 50 µl mixture containing HDAC assay buffer, 5 µg BSA, an HDAC substrate (see 2.3.1), hela nuclear extract, and a test compound (see 2.2).
After enzymatic reactions, 50μl of 2 x HDAC Developer was added to each well for the hela nuclear extract and the plate was incubated at room temperature for an additional 15 […]
Fluorescence intensity was measured at an excitation of 360 nm and an emission of 460 nm using a Tecan Infinite M1000 microplate reader.
Hela nuclear extract activity assays were performed in duplicates at each concentration.
The fluorescent intensity data were analyzed using the computer software, Graphpad Prism. In the absence of the compound, the fluorescent intensity (Ft) in each data set was defined as 100% activity. In the absence of hela nuclear extract, the fluorescent intensity (Fb) in each data set was defined as 0% activity. The percent activity in the presence of each compound was calculated according to the following equation: %activity = (F-Fb)/(Ft-Fb), where F= the fluorescent intensity in the presence of the compound.
The values of percentage activity were plotted on a bar graph.

HDAC6 = molecular target: T1, HDAC6 (Homo sapiens, UniProt Q9UBN7); test: In vitro HDAC6 inhibitory assay (BPS Bioscience, fluorogenic); conditions: 10 µM
T1 construct: purchased BPS Bioscience 50006
T1 sequence (Q9UBN7 1-1215): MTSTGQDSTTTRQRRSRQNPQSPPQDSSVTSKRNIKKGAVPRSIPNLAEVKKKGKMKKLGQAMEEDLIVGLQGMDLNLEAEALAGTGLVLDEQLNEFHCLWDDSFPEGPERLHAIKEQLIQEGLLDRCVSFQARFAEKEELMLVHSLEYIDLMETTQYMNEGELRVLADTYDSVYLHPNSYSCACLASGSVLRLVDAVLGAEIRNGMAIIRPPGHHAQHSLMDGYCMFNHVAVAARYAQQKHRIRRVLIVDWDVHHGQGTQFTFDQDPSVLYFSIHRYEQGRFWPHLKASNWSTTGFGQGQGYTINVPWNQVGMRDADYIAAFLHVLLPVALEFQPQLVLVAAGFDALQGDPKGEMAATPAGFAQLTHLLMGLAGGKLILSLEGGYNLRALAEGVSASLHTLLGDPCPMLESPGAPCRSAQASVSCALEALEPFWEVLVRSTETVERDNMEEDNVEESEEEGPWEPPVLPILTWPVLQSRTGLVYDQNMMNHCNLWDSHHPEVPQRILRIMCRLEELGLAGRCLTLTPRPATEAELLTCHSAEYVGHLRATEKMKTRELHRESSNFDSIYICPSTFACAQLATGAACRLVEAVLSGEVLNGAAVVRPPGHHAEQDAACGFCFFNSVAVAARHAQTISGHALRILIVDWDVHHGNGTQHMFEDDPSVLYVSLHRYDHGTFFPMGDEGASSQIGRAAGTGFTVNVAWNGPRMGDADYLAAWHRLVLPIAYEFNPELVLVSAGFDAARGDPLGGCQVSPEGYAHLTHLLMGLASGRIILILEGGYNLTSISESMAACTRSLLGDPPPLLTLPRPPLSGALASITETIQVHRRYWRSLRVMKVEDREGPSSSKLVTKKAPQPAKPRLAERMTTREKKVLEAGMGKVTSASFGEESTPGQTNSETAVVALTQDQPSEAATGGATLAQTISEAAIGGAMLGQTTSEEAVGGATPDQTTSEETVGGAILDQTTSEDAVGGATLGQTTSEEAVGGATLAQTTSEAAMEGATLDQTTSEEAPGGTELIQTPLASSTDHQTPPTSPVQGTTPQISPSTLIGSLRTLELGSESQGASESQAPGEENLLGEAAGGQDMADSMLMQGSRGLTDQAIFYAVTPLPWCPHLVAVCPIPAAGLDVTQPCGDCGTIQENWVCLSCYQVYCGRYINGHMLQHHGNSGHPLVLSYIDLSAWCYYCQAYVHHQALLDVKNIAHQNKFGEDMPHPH
Procedure: (1 picture or pasted object on this page, not shown here)
HDAC activity assays were performed in duplicates at each concentration. The

VEGFR-2 = VEGFR-2 (Homo sapiens, UniProt P35968); test: In vitro VEGFR-2 tyrosine kinase inhibitory assay (Z'-LYTE, SelectScreen); conditions: for inhibition at 0.0001 µM: 0.1 nM compound; for inhibition at 0.0001 µM / inhibition at 0.001 µM / inhibition at 0.01 µM / inhibition at 0.1 µM / inhibition at 1 µM: 10 μM ATP, read-out: % Inhibition mean, KDR (VEGFR2); for inhibition at 0.001 µM: 1 nM compound; for inhibition at 0.01 µM: 10 nM compound; for inhibition at 0.1 µM: 100 nM compound; for inhibition at 1 µM: 1000 nM compound; for IC50: read-out: IC50 in enzyme assays VEGFR-2
Sequence of VEGFR-2 (P35968 20-1356): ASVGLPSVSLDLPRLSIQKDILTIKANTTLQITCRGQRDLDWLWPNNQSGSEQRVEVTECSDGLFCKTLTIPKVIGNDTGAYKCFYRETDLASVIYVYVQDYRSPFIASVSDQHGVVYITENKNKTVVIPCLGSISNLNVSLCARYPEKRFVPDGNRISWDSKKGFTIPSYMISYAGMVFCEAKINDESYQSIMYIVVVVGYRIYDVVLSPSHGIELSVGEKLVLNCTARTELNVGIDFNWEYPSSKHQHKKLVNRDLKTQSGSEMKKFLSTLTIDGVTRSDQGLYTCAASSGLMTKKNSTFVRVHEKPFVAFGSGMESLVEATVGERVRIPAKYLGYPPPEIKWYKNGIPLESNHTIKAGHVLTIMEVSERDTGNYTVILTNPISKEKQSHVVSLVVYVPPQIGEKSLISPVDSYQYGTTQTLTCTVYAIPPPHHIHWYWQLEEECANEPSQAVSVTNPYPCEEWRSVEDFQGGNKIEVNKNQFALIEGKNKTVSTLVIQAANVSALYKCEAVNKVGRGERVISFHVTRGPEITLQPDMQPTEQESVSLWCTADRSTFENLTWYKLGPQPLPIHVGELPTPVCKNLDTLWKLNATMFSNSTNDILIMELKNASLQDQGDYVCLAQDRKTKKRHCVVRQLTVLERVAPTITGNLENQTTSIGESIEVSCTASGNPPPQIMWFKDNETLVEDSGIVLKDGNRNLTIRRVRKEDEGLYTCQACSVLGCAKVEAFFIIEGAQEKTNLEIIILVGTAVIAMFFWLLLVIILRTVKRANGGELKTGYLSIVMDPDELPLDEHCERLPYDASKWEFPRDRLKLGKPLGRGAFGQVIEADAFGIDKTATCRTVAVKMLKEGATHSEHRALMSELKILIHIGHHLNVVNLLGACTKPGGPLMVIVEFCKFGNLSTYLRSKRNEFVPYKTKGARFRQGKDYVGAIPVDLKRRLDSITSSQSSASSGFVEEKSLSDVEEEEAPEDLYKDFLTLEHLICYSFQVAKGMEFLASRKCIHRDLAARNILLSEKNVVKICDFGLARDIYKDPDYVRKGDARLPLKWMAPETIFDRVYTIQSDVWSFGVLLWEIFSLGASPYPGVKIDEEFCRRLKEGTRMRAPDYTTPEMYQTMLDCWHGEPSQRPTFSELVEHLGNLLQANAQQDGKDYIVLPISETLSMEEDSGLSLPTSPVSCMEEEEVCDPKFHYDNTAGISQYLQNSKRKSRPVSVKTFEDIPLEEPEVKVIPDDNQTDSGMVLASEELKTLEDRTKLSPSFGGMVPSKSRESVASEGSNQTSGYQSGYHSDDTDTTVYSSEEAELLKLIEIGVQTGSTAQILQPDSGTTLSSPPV
Procedure: The target compounds were evaluated for their in vitro inhibitory activities against EGFR, VEGFR-2, and HDAC6. The EGFR and VEGFR-2 inhibitory assays were performed at Thermo Fischer Scientific, Madison, WI, USA (SelectScreenServices@thermofisher.com). The HDAC inhibitory assays were performed at BPS Bioscience, San Diego, CA, USA (www.bpsbioscience.com). Initially, all of the synthesised target compounds were evaluated for their percent inhibitory activity against EGFR, VEGFR-2, and HDACs at 10 µM single dose concentration, in which their mean percent inhibition is summarised in (Figure 5, Tables 1 and [2]). Representative compounds were evaluated for their percent inhibitory activity against EGFR and VEGFR-2 at 6 different concentrations (0.1 nM, 1 nM, 10 nM, 100 nM, 1 µM, 10 µM) to subsequently calculate their IC50 values (Table 3). Additionally, all of the synthesised target compounds were submitted to the National Cancer Institute “NCI” Bethesda, Maryland, USA (www.dtp.nci.nih.gov), to evaluate theirs in vitro antiproliferative activities against NCI 60- cancer cell line panel.
In vitro enzyme inhibition determination for the synthesised compounds was carried out in Thermo Fischer Scientific, Madison, WI, USA (SelectScreenServices@thermofisher.com). The EGFR and VEGFR-2 tyrosine kinase % inhibitory activity at a single-dose concentration of 10 µM was performed initially then representative compounds were evaluated at single-dose concentrations of (0.1 nM, 1 nM, 10 nM, 100 nM, 1 µM) using ZYLTE technology. A fluorescence-based, coupled-enzyme format is employed in the biochemical assay and depends on the sensitivity of proteolytic cleavage to non-phosphorylated and phosphorylated peptides. Then IC50 values for selected compounds were determined by GraphPad Prism at Misr international university.

Compound | % Inhibition Hela Nuclear Extracts (Hela nuclear extracts) [%] | inhibition at 10 µM (HDAC6) [%] | inhibition at 10 µM (VEGFR-2; 10 µM single dose) [%] | Mean % inhibition HDAC6 (HDAC6) [%] | inhibition at 0.0001 µM (VEGFR-2) [%] | inhibition at 0.001 µM (VEGFR-2) [%] | inhibition at 0.01 µM (VEGFR-2) [%] | inhibition at 0.1 µM (VEGFR-2) [%] | inhibition at 1 µM (VEGFR-2) [%] | IC50 (VEGFR-2) [nM] | Mean % inhibition VEGFR-2 (VEGFR-2; 10 µM single dose) [%]
Cc1c(C(=O)NCCCC(=O)NO)sc2ncnc(Nc3ccccc3)c12 [Compound 20b, N-(4-(hydroxyamino)-4-oxobutyl)-5-methyl-4-(phenylamino)thieno[2,3-d]pyrimidine-6-carboxamide] | 21 | 56 | 25 | – | – | – | – | – | – | – | –
Cc1c(C(=O)NCCCC(=O)NO)sc2ncnc(Nc3ccc(F)c(Cl)c3)c12 [Compound 20d, 4–(3-chloro-4-fluorophenylamino)-N-(4-(hydroxyamino)-4-oxobutyl)-5-methylthieno[2,3-d]pyrimidine-6-carboxamide] | 0 | – | 20 | 9 | – | – | – | – | – | – | –
Cc1c(C(=O)NO)sc2ncnc(Nc3ccc(Cl)cc3)c12 [Compound 15c, 4–(4-chlorophenylamino)-N-hydroxy-5-methylthieno[2,3-d]pyrimidine-6-carboxamide] | 4 | 9 | 87 | 7 | 7 | 4 | 7 | 15 | 39 | 5580 | –
COc1cccc(NC(=O)Nc2ccc(Nc3ncnc4sc(C(=O)NO)c(C)c34)cc2)c1 [Compound 7b, 1–(4-(6-(hydroxycarbamoyl)-5-methylthieno[2,3-d]pyrimidin-4-ylamino)phenyl)-3–(3-methoxyphenyl)urea] | 2 | 8 | 78 | 6 | – | – | – | – | – | – | –
Cc1c(C(=O)NO)sc2ncnc(Nc3ccc(NC(=S)Nc4ccccc4)cc3)c12 [Compound 7d, 1–(4-(6-(hydroxycarbamoyl)-5-methylthieno[2,3-d]pyrimidin-4-ylamino)phenyl)-3-phenylthiourea] | 3 | 6 | 45 | – | – | – | – | – | – | – | –
Cc1c(C(=O)NCCC(=O)NO)sc2ncnc(Nc3ccccc3)c12 [Compound 19b, N-(3-(hydroxyamino)-3-oxopropyl)-5-methyl-4-(phenylamino)thieno[2,3-d]pyrimidine-6-carboxamide] | 5 | 10 | 13 | – | – | – | – | – | – | – | –
COc1cccc(NC(=O)Nc2ccc(Nc3ncnc4sc(C(=O)NCCC(=O)NO)c(C)c34)cc2)c1 [Compound 11b, 1–(4-(6-((3-(hydroxyamino)-3-oxopropyl)carbamoyl)-5-methylthieno[2,3-d]pyrimidin-4-ylamino)phenyl)-3–(3-methoxyphenyl)urea] | 4 | – | 75 | 13 | – | – | – | – | – | – | –
COc1cccc(NC(=O)Nc2ccc(Nc3ncnc4sc(C(=O)NCCCC(=O)NO)c(C)c34)cc2)c1 [Compound 12b, 1–(4-(6-((4-(hydroxyamino)-4-oxobutyl)carbamoyl)-5-methylthieno[2,3-d]pyrimidin-4-ylamino)phenyl)-3–(3-methoxyphenyl)urea] | 3 | 13 | 83 | 7 | – | – | – | – | – | – | –
Cc1c(C(=O)NCCCC(=O)NO)sc2ncnc(Nc3ccc(NC(=O)Nc4cccc(C(F)(F)F)c4)cc3)c12 [Compound 12c, 1–(4-(6-((4-(hydroxyamino)-4-oxobutyl)carbamoyl)-5-methylthieno[2,3-d]pyrimidin-4-ylamino)phenyl)-3–(3-(trifluoromethyl)phenyl)urea] | 7 | 23 | 103 | – | 5 | 10 | 5 | 36 | 90 | 185 | 100
Cc1c(C(=O)NO)sc2ncnc(Nc3ccccc3)c12 [Compound 15b, N-hydroxy-5-methyl-4-(phenylamino)thieno[2,3-d]pyrimidine-6-carboxamide] | 9 | 30 | 32 | – | – | – | – | – | – | – | –
Cc1c(C(=O)NO)sc2ncnc(Nc3ccc(NC(=O)Nc4ccccc4)cc3)c12 [Compound 7a, 1–(4-(6-(hydroxycarbamoyl)-5-methylthieno[2,3-d]pyrimidin-4-ylamino)phenyl)-3-phenylurea] | 2 | 7 | 89 | 5 | – | – | – | – | – | – | –
Cc1c(C(=O)NCCCC(=O)NO)sc2ncnc(Nc3ccc(Cl)cc3)c12 [Compound 20c, 4–(4-chlorophenylamino)-N-(4-(hydroxyamino)-4-oxobutyl)-5-methylthieno[2,3-d]pyrimidine-6-carboxamide] | 3 | 9 | 35 | 7 | – | – | – | – | – | – | –
